The target in this experiment is T1, LIMK2 (Homo sapiens, UniProt P53671).
T1 construct: His tag (histidine-tagged; pFastBacHT vector); made in house; host or cells: Sf9 insect cells (BAC-to-BAC baculovirus system)
T1 sequence (P53671 whole entry): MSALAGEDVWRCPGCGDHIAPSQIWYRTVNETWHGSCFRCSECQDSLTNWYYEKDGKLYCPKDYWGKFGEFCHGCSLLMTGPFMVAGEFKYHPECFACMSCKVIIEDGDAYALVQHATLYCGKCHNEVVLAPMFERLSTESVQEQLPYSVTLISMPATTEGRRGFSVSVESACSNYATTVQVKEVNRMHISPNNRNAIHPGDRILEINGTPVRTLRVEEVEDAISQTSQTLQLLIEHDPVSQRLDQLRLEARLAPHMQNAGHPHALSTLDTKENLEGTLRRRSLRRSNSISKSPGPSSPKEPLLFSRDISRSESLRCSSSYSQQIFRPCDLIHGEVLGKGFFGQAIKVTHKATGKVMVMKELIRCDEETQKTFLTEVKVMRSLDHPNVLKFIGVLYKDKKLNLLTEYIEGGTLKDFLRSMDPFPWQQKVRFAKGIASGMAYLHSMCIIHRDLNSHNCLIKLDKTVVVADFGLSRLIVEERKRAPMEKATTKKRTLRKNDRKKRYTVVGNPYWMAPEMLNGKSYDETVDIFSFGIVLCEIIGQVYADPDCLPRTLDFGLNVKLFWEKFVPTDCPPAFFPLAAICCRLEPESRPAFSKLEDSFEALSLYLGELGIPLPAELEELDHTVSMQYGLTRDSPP
The experiment can be described thus: In vitro LIMK2 inhibition assay (33P incorporation into myelin basic protein flash plates). The experiment is classed as biochemical.
A word on the IC50: it is the concentration needed to halve the response being measured. A higher IC50 goes with lower potency. For `Cc1c[nH]c2ncnc(N3CCC(C)(C(=O)Nc4cccc(Br)c4)CC3)c12` [N-(3-bromophenyl)-4-methyl-1-(5-methyl-7H-pyrrolo[2,3-d]pyrimidin-4-yl)piperidine-4-carboxamide], the IC50 was < 250 nM.

With `Cc1c[nH]c2ncnc(N3CCC(C)(C(=O)Nc4cccc(NC(=O)C(C)C)c4)CC3)c12` [N-(3-isobutyramidophenyl)-4-methyl-1-(5-methyl-7H-pyrrolo[2,3-d]pyrimidin-4-yl)piperidine-4-carboxamide], the IC50 was < 250 nM.

Turning to `COc1ccc(NC(=O)C2(C)CCN(c3ncnc4[nH]cc(C)c34)CC2)cc1` [N-(4-methoxyphenyl)-4-methyl-1-(5-methyl-7H-pyrrolo[2,3-d]pyrimidin-4-yl)piperidine-4-carboxamide], the IC50 was < 250 nM. With `COC(=O)c1nnn(CC2(C(=O)Nc3cccc(OC(=O)N(C)C)c3)CCN(c3ncnc4[nH]cc(C)c34)CC2)c1C(=O)OC` [dimethyl 1-((4-(3-(dimethylcarbamoyloxy)phenylcarbamoyl)-1-(5-methyl-7H-pyrrolo[2,3-d]pyrimidin-4-yl)piperidin-4-yl)methyl)-1H-1,2,3-triazole-4,5-dicarboxylate] the figure was < 250 nM.

The record behind these values is patent publication US8450332B2, “LIMK2 inhibitors, compositions comprising them, and methods of their use” (Lexicon Pharmaceuticals, Inc., priority 2008, dated 2013).
